Data from patent US20220192996A1, “CORE-SHELL STRUCTURE, PREPARATION, MEDICINE FOR EXTERNAL APPLICATION, TAPE AGENT AND COSMETIC PRODUCT” (SEKISUI CHEMICAL CO., LTD., priority 2019, published 2022).
Structures can show the parent of a compound that is named as a salt.

What was measured:
[1] = test system: dorsal skin of a rabbit; experiment: Primary irritation index of the active ingredient (4% by weight in Plastibase); type: in vivo; settings: 24 h enclosed application
Experimental: The phrase “low skin irritation” means skin irritation having a primary irritation index (P.I.I.) of 5 or less. The primary irritation index can be measured by the following method.
An active ingredient is added and mixed to an ointment base, Plastibase (manufactured by Taisho Pharmaceutical Co., Ltd.) so as to be 4% by weight based on the total weight, and dispersed to produce a preparation.
The dorsal skin of a rabbit is shaved with an electric clipper (with an electric shaver if necessary). On the dorsal healthy skin, two points in each of right and left sides of the dorsal midline, that is, four points in total are set to be an administration site. Next, the produced preparation is taken out with a spatula and spread evenly on a piece of lint having a size of 2 cm×2 cm, and the piece of lint is attached to the administration site. The piece of lint is fixed by covering with a non-woven adhesive bandage (manufactured by Nichiban Co., Ltd., MESHPORE, No. 50). Then, the administration sites are altogether wrapped with gauze and enclosed by covering with an adhesive cloth elastic bandage (manufactured by Nichiban Co., Ltd., ELASTOPORE, No. 100). The enclosure is released 24 hours after the start of administration, and the administered samples are removed.
The skin reaction is visually observed with the naked eye 24 hours after the administration (30 minutes after the release of the enclosure and the removal of the administered samples). […]
Specifically, for each administered sample at each time of observation, the individual score of the skin reaction at the administration site of each rabbit (the total of scores of erythema/eschar formation and edema formation) is calculated. Then, the primary irritation index (P.I.I.) is calculated from the individual scores at 24 hours and 72 hours after the administration (the score at 48 hours after the administration is not added). Specifically, the primary irritation index is calculated using Formulae (1) and (2) described below. […]

[2] = Octanol/water partition coefficient; type: physicochemical; settings: Log10, octanol / aqueous buffer pH 7
Experimental: In the present invention, the octanol/water partition coefficient is determined from the concentration of the active ingredient in each phase by adding the active ingredient to octanol and an aqueous buffer solution having a pH of 7 in a flask and then shaking the flask. Specifically, the octanol/water partition coefficient can be determined by calculating using the formula: octanol/water partition coefficient=Log10 (concentration in octanol phase/concentration in aqueous phase).

SMILES	primary irritation index (P.I.I.) of the active ingredient [1]	octanol/water partition coefficient [2]	logD ([2]; octanol / aqueous buffer solution)
CC(C(=O)O)c1ccc(CC2CCCC2=O)cc1 (centres unmarked) [loxoprofen sodium dihydrate]	0.3		
CC12CC3CC(C)(C1)CC(N)(C3)C2 [memantine hydrochloride]	2.5		
CCN(C)C(=O)Oc1cccc([C@H](C)N(C)C)c1 [rivastigmine]	0.5		
CCCc1nc(C)c2c(=O)[nH]c(-c3cc(S(=O)(=O)N4CCN(CC)CC4)ccc3OCC)nn12 [vardenafil hydrochloride hydrate]		0.0	0
